Measured values reported in patent US11077042B2, “Liquid hair dye composition” (KAO CORPORATION, priority 2017, dated 2021).

Assay: pKa of the azo dye
Assay type: physicochemical
Details: assumes blue color by proton dissociation
Description: The liquid hair dye composition of the present invention contain, as component (A), an azo dye represented by Formula (A-2) below (HC Blue 18). The pKa of the azo dye (A-2) is 6.0, and assumes blue color by proton dissociation.

**Q.** For `NS(=O)(=O)c1ccc2nsc(N=Nc3ccc(O)c(Cl)c3)c2c1` [Example A-2, HC Blue 18], which pKa is on record?
**A.** 6
